From ChEMBL document CHEMBL1201862, “PubChem BioAssay data set” (2004)
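96-well plates; 48 h exposure; 5 concentrations. Endpoints by linear interpolation between flanking doses. Not reached: highest tested concentration assigned. GI50 marks 50% less growth.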 Active and inactive are the calls of the source. Rule as the data show it: active = GI50 up to about 1.1 µM and inactive = higher.

Experiments:
Test in all cases: DTP human tumour cell line panel, 48 h
Malme-3M = tested on: Malme-3M
K562 = tested on: K562
UACC-257 = tested on: UACC-257
MDA-MB-435 = tested on: MDA-MB-435
HOP-62 = tested on: HOP-62
SF-268 = tested on: SF-268
SK-MEL-28 = tested on: SK-MEL-28
OVCAR-8 = tested on: OVCAR-8
U-251 = tested on: U-251
OVCAR-3 = tested on: OVCAR-3
UACC-62 = tested on: UACC-62
DU-145 = tested on: DU-145
TK-10 = tested on: TK-10
SK-MEL-2 = tested on: SK-MEL-2
SF-295 = tested on: SF-295
NCI-H460 = tested on: NCI-H460
ACHN = tested on: ACHN
A549 = tested on: A549
SK-MEL-5 = tested on: SK-MEL-5
RPMI-8226 = tested on: RPMI-8226

Structure (SMILES)	GI50 (Malme-3M)	GI50 (K562)	GI50 (UACC-257)	GI50 (MDA-MB-435)	GI50 (HOP-62)	GI50 (SF-268)	GI50 (SK-MEL-28)	GI50 (OVCAR-8)	GI50 (U-251)	GI50 (OVCAR-3)	GI50 (UACC-62)	GI50 (DU-145)	GI50 (TK-10)	GI50 (SK-MEL-2)	GI50 (SF-295)	GI50 (NCI-H460)	GI50 (ACHN)	GI50 (A549)	GI50 (SK-MEL-5)	GI50 (RPMI-8226)
COc1ccc(C)cc1N1C(=O)C2ON(Cc3ccc(CC(N)=O)cc3)C(c3c4ccccc4c(Cl)c4ccccc34)C2C1=O (stereo not given)	31.1 µM (inactive)	28.8 µM (inactive)	15 µM (inactive)	21.9 µM (inactive)	27.7 µM (inactive)	26.5 µM (inactive)	44.1 µM (inactive)	27.6 µM (inactive)	24.3 µM (inactive)	28.4 µM (inactive)	19.7 µM (inactive)	22.6 µM (inactive)	23.1 µM (inactive)	21.1 µM (inactive)	22.9 µM (inactive)	18.4 µM (inactive)	25.4 µM (inactive)	55.2 µM (inactive)	–	–
COc1ccc(-n2nnc(C(N)=O)c2O)cc1	91 µM (inactive)	> 100 µM (inactive)	> 100 µM (inactive)	> 100 µM (inactive)	> 100 µM (inactive)	> 100 µM (inactive)	> 100 µM (inactive)	> 100 µM (inactive)	> 100 µM (inactive)	0.0187 µM (active)	> 100 µM (inactive)	> 100 µM (inactive)	–	> 100 µM (inactive)	> 100 µM (inactive)	> 100 µM (inactive)	> 100 µM (inactive)	> 100 µM (inactive)	> 100 µM (inactive)	> 100 µM (inactive)
Cc1nc2c(O)nc3ccccc3c2o1	> 100 µM (inactive)	–	> 100 µM (inactive)	> 100 µM (inactive)	> 100 µM (inactive)	> 100 µM (inactive)	> 100 µM (inactive)	> 100 µM (inactive)	> 100 µM (inactive)	> 100 µM (inactive)	> 100 µM (inactive)	> 100 µM (inactive)	> 100 µM (inactive)	> 100 µM (inactive)	> 100 µM (inactive)	> 100 µM (inactive)	> 100 µM (inactive)	> 100 µM (inactive)	> 100 µM (inactive)	> 100 µM (inactive)
N#CC1CCCC2SC(F)(F)C(F)(F)C12 (stereo not given)	> 100 µM (inactive)	30.5 µM (inactive)	> 100 µM (inactive)	> 100 µM (inactive)	> 100 µM (inactive)	> 100 µM (inactive)	> 100 µM (inactive)	> 100 µM (inactive)	> 100 µM (inactive)	> 100 µM (inactive)	> 100 µM (inactive)	> 100 µM (inactive)	> 100 µM (inactive)	> 100 µM (inactive)	> 100 µM (inactive)	> 100 µM (inactive)	> 100 µM (inactive)	> 100 µM (inactive)	> 100 µM (inactive)	> 46.8 µM (inactive)
COC(=O)C1=C(C(=O)OC)C2(/N=C(\Nc3ccccc3)c3ccccc3)N(c3ccc(OC)cc3)CC(c3ccccc3)N2O1 (stereo not given)	> 100 µM (inactive)	> 100 µM (inactive)	> 100 µM (inactive)	> 100 µM (inactive)	> 100 µM (inactive)	> 100 µM (inactive)	> 100 µM (inactive)	> 100 µM (inactive)	> 100 µM (inactive)	> 100 µM (inactive)	> 100 µM (inactive)	> 100 µM (inactive)	> 100 µM (inactive)	> 100 µM (inactive)	> 100 µM (inactive)	> 100 µM (inactive)	> 100 µM (inactive)	> 100 µM (inactive)	> 100 µM (inactive)	–
Cc1ccc(-c2nc(N/N=C/c3ccc(O)cc3)c3ccccc3n2)cc1	13.8 µM (inactive)	22.8 µM (inactive)	4.06 µM (inactive)	10.8 µM (inactive)	31.9 µM (inactive)	18.8 µM (inactive)	17.8 µM (inactive)	22.9 µM (inactive)	19.8 µM (inactive)	4.29 µM (inactive)	12.3 µM (inactive)	21.8 µM (inactive)	24.3 µM (inactive)	15.8 µM (inactive)	17.9 µM (inactive)	9.91 µM (inactive)	7.21 µM (inactive)	6.14 µM (inactive)	3.51 µM (inactive)	40.7 µM (inactive)
CCOC(=O)/C1=C(\C)N(c2ccc(C)cc2)C(=O)c2ccccc2C(=O)c2c(O)ccc(O)c21	18.1 µM (inactive)	20.6 µM (inactive)	15.8 µM (inactive)	18.5 µM (inactive)	20.7 µM (inactive)	27.7 µM (inactive)	–	18.9 µM (inactive)	22.4 µM (inactive)	17.8 µM (inactive)	28 µM (inactive)	32.2 µM (inactive)	26.2 µM (inactive)	28.8 µM (inactive)	16.9 µM (inactive)	23.2 µM (inactive)	14.2 µM (inactive)	26.6 µM (inactive)	16.3 µM (inactive)	11.7 µM (inactive)
Cc1cccc(/C=N/NC(=S)NC2CCCCC2)n1	16.2 µM (inactive)	4.61 µM (inactive)	17.3 µM (inactive)	33.7 µM (inactive)	20.9 µM (inactive)	32 µM (inactive)	46.7 µM (inactive)	19.4 µM (inactive)	20.5 µM (inactive)	3.7 µM (inactive)	21.3 µM (inactive)	29.6 µM (inactive)	58.5 µM (inactive)	24.1 µM (inactive)	29 µM (inactive)	13.5 µM (inactive)	25.8 µM (inactive)	28.9 µM (inactive)	29.9 µM (inactive)	6.92 µM (inactive)
COC(=O)C1CCC(=O)N1C(c1ccc(OC)cc1)c1ccc2c(c1)OCO2 (stereo not given)	45.5 µM (inactive)	23.4 µM (inactive)	39.1 µM (inactive)	7.01 µM (inactive)	53.2 µM (inactive)	53.6 µM (inactive)	57.1 µM (inactive)	48.9 µM (inactive)	39.4 µM (inactive)	50.8 µM (inactive)	32.7 µM (inactive)	> 100 µM (inactive)	> 100 µM (inactive)	43.7 µM (inactive)	17 µM (inactive)	40.4 µM (inactive)	97.9 µM (inactive)	47.5 µM (inactive)	24.7 µM (inactive)	43.3 µM (inactive)
CC(=O)OC(C)(C)[C@H]1O[C@]23O[C@]1(C)C[C@@H](C)[C@@H]2[C@@]1(C)CC[C@@]24C[C@@]25CC[C@H](O[C@@H]2OC[C@@H](O)[C@H](O)[C@H]2O)C(C)(C)[C@@H]5CC[C@H]4[C@]1(C)[C@H]3O	22.8 µM (inactive)	4.5 µM (inactive)	18.8 µM (inactive)	8.73 µM (inactive)	11.9 µM (inactive)	14 µM (inactive)	7.08 µM (inactive)	10.8 µM (inactive)	6.41 µM (inactive)	3.59 µM (inactive)	14.6 µM (inactive)	4.34 µM (inactive)	10 µM (inactive)	18.1 µM (inactive)	8 µM (inactive)	7.4 µM (inactive)	6.07 µM (inactive)	6.41 µM (inactive)	10.3 µM (inactive)	7.69 µM (inactive)
C=C1[C@H](OC(=O)C(C)C)[C@]23CC4(O)[C@@H]5[C@@]6(C)CCC[C@]57C([C@@H]2C[C@@]1(O)[C@H](O)[C@@H]73)N4C6	> 100 µM (inactive)	–	> 100 µM (inactive)	> 100 µM (inactive)	> 100 µM (inactive)	> 100 µM (inactive)	> 100 µM (inactive)	> 100 µM (inactive)	> 100 µM (inactive)	> 100 µM (inactive)	> 100 µM (inactive)	> 100 µM (inactive)	> 100 µM (inactive)	> 100 µM (inactive)	> 100 µM (inactive)	> 100 µM (inactive)	72.8 µM (inactive)	> 100 µM (inactive)	> 100 µM (inactive)	> 100 µM (inactive)
CCc1cc(Cc2cc(CC)c(NC(=O)C(=O)CC(=O)c3sc(-c4cccnc4)nc3C)c(CC)c2)cc(CC)c1NC(=O)C(=O)CC(=O)c1sc(-c2cccnc2)nc1C	> 100 µM (inactive)	> 100 µM (inactive)	> 100 µM (inactive)	> 100 µM (inactive)	–	> 100 µM (inactive)	> 100 µM (inactive)	> 100 µM (inactive)	> 100 µM (inactive)	> 100 µM (inactive)	> 100 µM (inactive)	> 100 µM (inactive)	–	> 100 µM (inactive)	54.3 µM (inactive)	> 100 µM (inactive)	> 100 µM (inactive)	> 100 µM (inactive)	> 100 µM (inactive)	> 100 µM (inactive)
Cc1ccc(S(=O)(=O)NN=C2C(C)(C)CC2(C)C)cc1	> 100 µM (inactive)	76.2 µM (inactive)	> 100 µM (inactive)	> 100 µM (inactive)	> 100 µM (inactive)	> 100 µM (inactive)	> 100 µM (inactive)	> 100 µM (inactive)	> 100 µM (inactive)	> 100 µM (inactive)	> 100 µM (inactive)	> 100 µM (inactive)	> 100 µM (inactive)	> 100 µM (inactive)	> 100 µM (inactive)	> 100 µM (inactive)	> 100 µM (inactive)	> 100 µM (inactive)	> 100 µM (inactive)	–
